Legend:
[1] = target: T1, Cathepsin D (Mus musculus, UniProt P18242); assay: Mouse hepatic lysosomal cathepsin D activity; type: biochemical; details: for IC50: Table XV, mouse hepatic, 60 min incubation, read-out: Cathepsin D IC50
T1 construct: azocasein assay pH 5.0
From the text: (§1) 1. Cf1 male mouse hepatic 10% homogenates in 0.25M sucrose+0.001MEDTA,pH 7.2.
(§2) Lysosomal Enzymes - free and total [triton X-100].
(§3) 2. Acid Cathepsin D -azocasein-pH 5.0, hydrolytic azo-peptide produce 366 nm.
Cathepsin azo casein activity -

[2] = in vivo; details: mouse, Table 1, N=6
Protocol: Amine borane compounds (0 to 100 mg/kg) were administered to CF1 male mice as a single injection with six mice for each dosage. Mice were weighed daily and the number of deaths was recorded each day for a 14 day period. The LD50 value was determined by the procedure of S.C. Gad and C.S. Weil, "Statistics for Toxicologists" in Principles and Methods of Toxicology, A.W. Hayes, Ed., 2nd Edition, P 435-483 Raven Press, New York 1982.

[3] = target: T2, Cathepsin (Rattus norvegicus, UniProt P24268); assay: Rat PMNs cathepsin activity; type: cell-based; details: pH 5; 5 × 10^-6 M, N=6; read-out: Rat PMNs Cathep.
T2 construct: azocasein assay pH 5.0
T2 sequence (P24268 65-407): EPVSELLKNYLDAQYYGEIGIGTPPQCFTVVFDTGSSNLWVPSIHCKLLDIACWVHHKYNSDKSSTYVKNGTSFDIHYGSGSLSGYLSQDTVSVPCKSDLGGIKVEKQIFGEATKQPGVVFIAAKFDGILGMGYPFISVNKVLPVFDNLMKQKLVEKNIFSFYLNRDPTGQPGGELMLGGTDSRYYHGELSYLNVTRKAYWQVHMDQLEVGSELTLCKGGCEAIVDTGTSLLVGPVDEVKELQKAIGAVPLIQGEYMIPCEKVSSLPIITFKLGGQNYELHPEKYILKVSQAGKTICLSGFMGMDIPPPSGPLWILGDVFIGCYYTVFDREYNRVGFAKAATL
From the text: 2. PMNs-polymorphonuclear neutrophils-rat peritoneal cavity 0.5% oyster glycogen.
as §3

[4] = tested on: Prostaglandin cyclooxygenase; assay: Mouse macrophage prostaglandin cyclooxygenase activity; type: cell-based; details: 60 min incubation, read-out: Prostaglandin Cyclooxygenase IC50
From the text: (§4) 3. Mouse macrophages J774A.1 BALB/c
Prostaglandin synthetase purified beef seminal vesicle ^3 H arachidonic acid (86.2 Ci/mmol), tlc separation.

[5] = tested on: Sprague Dawley Rats; assay: Anti-inflammatory activity in Sprague Dawley rats; type: in vivo; details: Table IV; 8 mg/kg I.P.
[6] = tested on: Elastase; assay: Human osteoporosis fibroblasts elastase activity; type: cell-based; details: Table XI; human osteoporosis fibroblasts, 60 min incubation; read-out: Elastase IC50
From the text: 2. Elastase- N-succinyl-L-alanyl-L-alanine-p-nitroanilide, pH 8.0, p-nitro anilide 410 nm.

[7] = tested on: Acid phosphatase; assay: Human osteoporosis fibroblasts acid phosphatase activity; type: cell-based; details: Table X; human osteoporosis fibroblasts; read-out: Acid Phosphatase IC50
From the text: (§5) 1. Acid phosphatase -beta glycerol-3-phosphate, pH 5.0, released IP 720 nm.

[8] = tested on: Aryl sulphatase; assay: Human osteoporosis fibroblasts aryl sulphatase activity; type: cell-based; details: Table X; human osteoporosis fibroblasts; read-out: Aryl Sulphatase IC50
From the text: (§6) 3. Aryl sulphatase- p-nitrocatechol sulfate, pH
(§7) 5. 8 p-nitro-catechol product 510 nm.

[9] = target: T3, 5'-lipoxygenase (Mus musculus, UniProt P48999); assay: Mouse hepatic 5'-lipoxygenase activity; type: biochemical; details: Table VI; mouse hepatic, 60 min incubation; read-out: 5'-lipoxygenase IC50
T3 construct: Cf1 male mouse hepatic 10% homogenates; from tissue; host or cells: CF1 male mouse liver, 10% homogenate
T3 sequence (P48999 1-674): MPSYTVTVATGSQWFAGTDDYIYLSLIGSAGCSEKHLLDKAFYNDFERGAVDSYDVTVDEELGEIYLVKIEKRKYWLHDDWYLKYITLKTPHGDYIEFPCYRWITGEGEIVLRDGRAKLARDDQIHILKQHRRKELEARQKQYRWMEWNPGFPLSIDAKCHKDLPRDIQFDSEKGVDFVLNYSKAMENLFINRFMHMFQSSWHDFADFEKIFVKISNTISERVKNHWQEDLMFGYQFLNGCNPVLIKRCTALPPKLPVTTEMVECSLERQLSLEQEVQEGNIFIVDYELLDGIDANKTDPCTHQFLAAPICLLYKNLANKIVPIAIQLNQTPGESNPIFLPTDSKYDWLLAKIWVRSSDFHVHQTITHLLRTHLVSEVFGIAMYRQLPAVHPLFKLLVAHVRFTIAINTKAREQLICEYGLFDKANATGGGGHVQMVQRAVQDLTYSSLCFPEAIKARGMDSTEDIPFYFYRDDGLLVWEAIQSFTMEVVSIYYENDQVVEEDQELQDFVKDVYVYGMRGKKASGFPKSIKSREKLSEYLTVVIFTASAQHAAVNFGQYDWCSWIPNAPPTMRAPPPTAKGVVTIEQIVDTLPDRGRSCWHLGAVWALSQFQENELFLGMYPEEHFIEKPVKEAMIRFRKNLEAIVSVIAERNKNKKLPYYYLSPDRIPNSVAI
From the text: as §1
5'-lipoxygenase Mylari, B.L., et al, J. Med.

[10] = tested on: Elastase; assay: Mouse macrophage elastase activity; type: cell-based; details: 60 min incubation, read-out: Elastase IC50
[11] = tested on: Trypsin; assay: Mouse macrophage trypsin (BAEE) activity; type: cell-based; details: 60 min incubation, read-out: Trypsin BAEE IC50
[12] = tested on: Trypsin; assay: Human osteoporosis fibroblasts trypsin (BAEE) activity; type: cell-based; details: Table XI; human osteoporosis fibroblasts, 60 min incubation; read-out: Trypsin BAEE IC50
From the text: (§8) 1. Trypsin- N-benzoyl-L-arginine ethyl ester pH 8.0, hydrolytic product 253 nm.

[13] = tested on: Prostaglandin cyclooxygenase; assay: Human osteoporosis fibroblasts prostaglandin cyclooxygenase activity; type: cell-based; details: Table XI, 60 min incubation, read-out: Prostaglandin Cyclooxygense IC50
[14] = tested on: Cf1 male mice; assay: Writhing reflex, 0.6% acetic acid; type: in vivo; details: Mus musculus, ip, Table IV
[15] = tested on: Aryl sulphatase; assay: Mouse macrophage aryl sulphatase activity; type: cell-based; details: 60 min incubation, read-out: Aryl Sulphatase IC50
[16] = target: T4, Cathepsin D (Homo sapiens, UniProt P07339); assay: Human osteoporosis fibroblasts cathepsin D (azo-casein) activity; type: cell-based; details: Table X; human osteoporosis fibroblasts, DMEM +10% FCS + P/S; read-out: Cathepsin D IC50
T4 construct: azocasein assay pH 5.0
T4 sequence (P07339 65-412): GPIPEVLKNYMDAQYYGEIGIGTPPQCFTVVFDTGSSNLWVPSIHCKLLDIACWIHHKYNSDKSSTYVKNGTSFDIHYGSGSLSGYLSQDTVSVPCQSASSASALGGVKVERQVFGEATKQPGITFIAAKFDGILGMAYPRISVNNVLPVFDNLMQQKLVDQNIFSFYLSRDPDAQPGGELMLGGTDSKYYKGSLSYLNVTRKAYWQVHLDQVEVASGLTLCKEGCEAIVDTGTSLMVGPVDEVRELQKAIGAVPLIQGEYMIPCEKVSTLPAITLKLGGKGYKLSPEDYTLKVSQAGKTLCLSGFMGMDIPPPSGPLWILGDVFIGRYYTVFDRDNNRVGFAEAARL
From the text: Osteoporosis Human Fibroblast-CRL-1140, Be SA1

[17] = tested on: Acid phosphatase; assay: Mouse macrophage acid phosphatase activity; type: cell-based; details: 60 min incubation, read-out: Acid Phosphatase IC50
[18] = target: Aryl sulphatase; assay: Mouse hepatic lysosomal aryl sulphatase activity; type: biochemical; details: Table XV, 60 min incubation
From the text: as §1, §2, §6, §7

[19] = target: T1, Cathepsin D; assay: Mouse macrophage cathepsin D activity; type: cell-based; details: Table XVII; mouse macrophage, 60 min incubation; read-out: Cathepsin D pH 5.0 IC50
From the text: as §4, §3

[20] = tested on: Sprague Dawley male rats; assay: Chronic adjuvant arthritis screen, Mycobacterium butyricum; type: in vivo; details: Table XIV; unit not given
[21] = tested on: Cf1 male mice; assay: Anti-inflammatory screen, Winter's test, 2% carrageenan hind foot; type: in vivo; details: Table XIV; unit inferred; unit assumed
Protocol: Anti-inflammatory Screen- Cf1 - male mice-Winter's Test 2% carrageenan S.C. plantar surface of hind foot, drugs administered @8 or 10 mg/kg I.P. 2X
Winter, C.A., et al, Proc. Soc.

[22] = target: Acid phosphatase; assay: Mouse hepatic lysosomal acid phosphatase activity; type: biochemical; details: Table XV; mouse hepatic, 60 min incubation
From the text: as §1, §2, §5
Acid phosphatase activity -

[23] = tested on: Cf1 male mice; assay: Hot plate tail flick test; type: in vivo; details: Table XIV; unit not given
[24] = target: T5, Pg. cyclooxygenase (Sus scrofa, UniProt A0A287ANF9); assay: Porcine seminal vesicles Pg. cyclooxygenase; type: biochemical; details: Table XVI; 60 min incubation
T5 construct: Porcine Seminal; from tissue; the methods section prints beef seminal vesicle
T5 sequence (A0A287ANF9 25-600): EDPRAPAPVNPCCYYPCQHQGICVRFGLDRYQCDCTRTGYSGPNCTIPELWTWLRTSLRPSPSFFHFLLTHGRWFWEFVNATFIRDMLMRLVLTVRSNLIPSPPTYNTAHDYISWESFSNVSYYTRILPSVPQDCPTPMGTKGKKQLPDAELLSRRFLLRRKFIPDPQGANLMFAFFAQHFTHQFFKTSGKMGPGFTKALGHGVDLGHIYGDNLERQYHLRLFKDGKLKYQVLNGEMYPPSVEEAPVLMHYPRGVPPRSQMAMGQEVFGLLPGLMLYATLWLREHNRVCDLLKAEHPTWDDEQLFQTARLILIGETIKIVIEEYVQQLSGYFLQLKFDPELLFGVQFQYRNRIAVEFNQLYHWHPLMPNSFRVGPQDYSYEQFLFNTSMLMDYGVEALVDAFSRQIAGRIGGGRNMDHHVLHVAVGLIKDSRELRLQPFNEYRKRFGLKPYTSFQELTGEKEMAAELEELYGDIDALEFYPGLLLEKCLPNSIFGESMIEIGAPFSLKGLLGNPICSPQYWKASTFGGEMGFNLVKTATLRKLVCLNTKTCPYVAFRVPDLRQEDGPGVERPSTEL

[25] = tested on: Sprague Dawley male rats; assay: Anti-pleurisy screen, Evans blue + carrageenan; type: in vivo; details: Table XIV; unit not given
[26] = target: Commercial Collagenase; assay: Commercial collagenase (type not stated); type: biochemical; details: Table XVI; 60 min incubation
From the text: 3. Collagenase I, Clostridium histolyticum, bone, skin, tendon, blood vessel, dentine, GI. substrate: rat collagen, N-[propionate-2-3-^3 H] propionylated measured as dpm released.
4. Collagenase II, Clostridium histolyticum, cartilage collagen.

[27] = tested on: Cf1 male mice; assay: Writhing reflex, 0.6% acetic acid; type: in vivo; details: Table XIV; unit inferred; unit assumed
Protocol: Writhing reflex- Cf1 -male mice- 0.6% acetic acid I.P. drugs administered @20 mg/kg/ I.P. 20 min. later - the # of stretches/10 min.
Hendershot, L.C., et al, J.

[28] = tested on: Trypsin; assay: Mouse hepatic trypsin activity; type: biochemical; details: Table XVI; 60 min incubation; read-out: Mouse Hepatic Trypsin IC50
From the text: as §1, §8

[29] = Table VII, mouse macrophage cultured cells

T1 sequence (P18242 65-410): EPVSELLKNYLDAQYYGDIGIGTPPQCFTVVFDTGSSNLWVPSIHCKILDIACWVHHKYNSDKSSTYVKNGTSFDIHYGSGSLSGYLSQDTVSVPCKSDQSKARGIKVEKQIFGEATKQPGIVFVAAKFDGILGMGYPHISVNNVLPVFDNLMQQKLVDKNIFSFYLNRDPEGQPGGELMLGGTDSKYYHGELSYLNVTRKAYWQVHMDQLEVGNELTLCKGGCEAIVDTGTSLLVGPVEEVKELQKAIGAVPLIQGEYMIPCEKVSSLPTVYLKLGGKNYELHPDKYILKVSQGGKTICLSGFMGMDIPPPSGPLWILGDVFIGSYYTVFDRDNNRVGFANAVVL

| SMILES | IC50 [18] [µM] | IC50 ([4]; Table XVIII, mouse macrophage) [µM] | IC50 [19] [µM] | IC50 [1] [µM] | Anti-Arthritis Rats [20] | Anti-Inflammation Cf1 Mice [21] [%] | IC50 ([10]; Table XVIII, mouse macrophage) [µM] | IC50 ([11]; Table XVIII, mouse macrophage) [µM] | IC50 ([15]; Table XVII, mouse macrophage) [µM] | IC50 [22] [µM] | IC50 ([17]; Table XVII, mouse macrophage) [µM] | Tail Flick Mice [23] | IC50 [24] [µM] | Anti-Pleurisy Rats [25] | IC50 [26] [µM] | Writhing Reflex Mice [27] [%] | IC50 [28] [µM] | further results |
| --- | --- | --- | --- | --- | --- | --- | --- | --- | --- | --- | --- | --- | --- | --- | --- | --- | --- | --- |
| [BH3-][NH+]1CCOCC1 [Compound 1] | – | – | – | – | – | – | – | – | – | – | – | – | – | – | – | – | – | activity at 5 µM ([1]; pH 5, read-out: Mouse Liver Cathep.): 107%; LD50 at 336 h [2]: 475 mg/kg; activity at 5 µM [3]: 93% |
| CCOC(=O)[BH2-][N+](C)(C)C [Compound 6] | – | – | – | – | – | – | – | – | – | – | – | – | – | – | – | – | – | LD50 at 336 h [2]: 140 mg/kg; activity at 5 µM [3]: 16% |
| CCNC(=O)[BH2-][NH+](C)C [Compound 9, Dimethylamine-N-ethylcarbamoylborane] | – | – | – | – | – | – | – | – | – | – | – | – | – | – | – | – | – | IC50 ([4]; Table VIII, mouse macrophages): 5.19 µM; Anti-Inflammatory Activity Sprague Dawley Rats [5]: 41 % Control; IC50 [6]: 0.98 µM; IC50 [7]: 8.6 µM; IC50 [8]: 7.63 µM; IC50 [9]: 43.5 µM; IC50 ([10]; Table VIII, mouse macrophages): 3.29 µM; IC50 ([11]; Table VIII, mouse macrophages): 2.03 µM; IC50 [12]: 4.36 µM; IC50 [13]: 8.05 µM; response vs control in vivo at 8 mg/kg ([14]; 8 mg/kg I.P.): 26.9%; IC50 [15, 29]: 9.27 µM; IC50 [16]: 1.93 µM; IC50 [17, 29]: 1.12 µM |
| BC(=O)O [Compound 13] | 4.34 | 15.6 | 4.57 | 6.19 | 55.2 | 41.7 | 3.07 | 2.25 | 5.43 | 4 | 0.82 | – | – | – | – | – | – | IC50 ([4]; Table VIII, mouse macrophages): 6.79 µM; Anti-Inflammatory Activity Sprague Dawley Rats [5]: 55 % Control; IC50 [6]: 3.01 µM; IC50 [7]: 6.5 µM; IC50 [8]: 8.19 µM; IC50 ([10]; Table VIII, mouse macrophages): 3.07 µM; IC50 ([11]; Table VIII, mouse macrophages): 2.25 µM; IC50 [12]: 7.51 µM; IC50 [13]: 5.51 µM; response vs control in vivo at 20 mg/kg [14]: 17.4%; IC50 [15, 29]: 5.43 µM; IC50 [16]: 1.19 µM; IC50 [17, 29]: 0.82 µM |
| CC#N.CO.C[N+](C)(C)[BH2-]C(=O)[O-].C[N+](C)(C)[BH2-]C(=O)[O-].C[N+](C)(C)[BH2-]C(=O)[O-].C[N+](C)(C)[BH2-]C(=O)[O-].C[N+](C)(C)[BH2-]C(=O)[O-].C[N+](C)(C)[BH2-]C(=O)[O-].O.O=[N+]([O-])[O-].[Cr+3].[Cr+3].[Cr+3].[O-2] [Compound 26] | 7.73 | 1.62 | 2.49 | 5.47 | 78.0 | 58.5 | 5.09 | 2.1 | 1.2 | 6.99 | 2.48 | 184 | 2.14 | 40.0 | 567 | 85.4 | 9.96 | – |
| C[N+](C)(C)[BH2-]C(=O)[O-].C[N+](C)(C)[BH2-]C(=O)[O-].NCCN.NCCN.[Cl-].[Co+3] [Compound 27] | 5.89 | 2.09 | 3.83 | 7.8 | 70.0 | 49.6 | 9.77 | 1.38 | 1.95 | 4.25 | 2.92 | 150 | 4.01 | 96.3 | 522 | 66.2 | 9.88 | – |
| CC(C)=O.C[N+](C)(C)[BH2-]C(=O)[O-].O=[N+]([O-])[O-].[Ca+2] [Compound 28] | 3.05 | 1.92 | 2.38 | 4.58 | – | 65 | 5.93 | 2.38 | 2.38 | 7.66 | 3.08 | 169 | 2.57 | 50.1 | 495 | 66.4 | 9.99 | – |

From patent publication US5312816A, “Method of combatting osteoporosis in mammalian subjects, utilizing organic boron compounds” (priority 1993, dated 1994)
